Assay results: patent publication US20050154042A1, “N-alkyl pyrroles as HMG-CoA reductase inhibitors” (priority 2003, published 2005)
Where a name gives a salt, the structure may show the parent alone.

How the values were obtained:
[1] = target: T1, HMGCoA (3-Hydroxy-3-methylglutaryl CoA) Reductase (Rattus norvegicus, UniProt P51639); test: HMGCoA reductase assay with rat liver microsomes (14C-HMGCoA); format: biochemical; details: 45 min at 37° C.
T1 construct: Male Charles River Sprague-Dawley rats were fed with 2.5% cholestyramine in rat chow diets for 5 days before sacrificing; from tissue; host or cells: liver microsomes of male Sprague-Dawley rats fed cholestyramine
T1 sequence (P51639 1-887): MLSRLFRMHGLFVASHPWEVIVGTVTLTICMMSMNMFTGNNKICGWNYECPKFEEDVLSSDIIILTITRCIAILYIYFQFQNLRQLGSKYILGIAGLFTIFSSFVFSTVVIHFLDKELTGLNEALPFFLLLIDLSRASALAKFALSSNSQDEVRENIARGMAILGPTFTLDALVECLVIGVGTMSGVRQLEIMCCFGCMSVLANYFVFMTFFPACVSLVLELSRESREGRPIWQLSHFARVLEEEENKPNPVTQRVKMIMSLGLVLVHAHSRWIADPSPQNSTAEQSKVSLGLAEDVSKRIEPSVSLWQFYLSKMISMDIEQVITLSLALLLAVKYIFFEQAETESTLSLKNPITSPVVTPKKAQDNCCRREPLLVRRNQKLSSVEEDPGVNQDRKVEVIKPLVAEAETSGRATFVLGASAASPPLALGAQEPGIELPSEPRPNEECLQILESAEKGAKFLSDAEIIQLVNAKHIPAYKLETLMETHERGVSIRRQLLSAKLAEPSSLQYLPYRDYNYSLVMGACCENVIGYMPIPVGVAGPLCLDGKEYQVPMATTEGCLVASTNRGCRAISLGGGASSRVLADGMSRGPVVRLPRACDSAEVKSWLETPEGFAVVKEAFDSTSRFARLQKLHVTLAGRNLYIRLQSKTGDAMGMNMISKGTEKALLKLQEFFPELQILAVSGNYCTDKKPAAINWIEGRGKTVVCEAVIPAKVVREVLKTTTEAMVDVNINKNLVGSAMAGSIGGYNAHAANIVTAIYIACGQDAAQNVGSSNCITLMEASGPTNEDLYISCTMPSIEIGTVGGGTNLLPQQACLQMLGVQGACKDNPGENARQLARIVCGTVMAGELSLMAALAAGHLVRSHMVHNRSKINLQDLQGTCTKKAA
Description: (See, e.g., J. of Lipid Research 1998; 39: 75-84; Analytical Biochemistry, 1991; 196: 211-214; RR740-01077 Pharmacology 8, Nov., 1982) Accordingly, such compounds and formulations comprising such compounds are useful for treating, controlling or preventing inter alia hypercholesterolemia, hyperlipidemia, hypertriglyceridemia or atherosclerosis.
Rat Liver Microsomal Isolation Procedure:
Male Charles River Sprague-Dawley rats were fed with 2.5% cholestyramine in rat chow diets for 5 days before sacrificing. Livers were minced and homogenized in a sucrose homogenizing solution in an ice bath 10 times. Homogenates were diluted into a final volume of 200 mL, and centrifuged 15 min. with a Sorvall Centrifuge at 5° C., 10,000 rpm (12,000×G). The upper fat layer was removed and the supernatant decanted into fresh tubes. This step was repeated one more time before transferring the supernatant into ultracentrifuge tubes and centrifuged at 36,000 rpm (105,000×G) for an hour at 5° C. The resulting supernatant was discarded and the pellet was added to total of 15 mL 0.2 M KH2PO4. Pellets were homogenized gently by hand about 10 times. Samples were pooled and diluted into total of 60 mL buffer. The protein concentration of the homogenate was determined by the […] using a BCA kit from Pierce Chemical Company. 1 mL aliquots of microsomes were kept frozen in liquid nitrogen.
HMGCoA (3-Hydroxy-3-methylglutaryl CoA) Reductase Assay:
[3-^14C]-HMGCoA (57.0 mCi/mmol) was purchased from Amersham Biosciences, UK. HMGCoA, mevalonolactone, NADPH were purchased from Sigma Chemical Co. AG 1-8X resin was purchased from Bio-Rad Laboratory.
One μL of dimethyl sulfoxide (DMSO) or 1 μL of DMSO containing a test compound at a concentration sufficient to give a final assay concentration of between 0.1 nM to 1 mM was placed into each well of a Corning 96 well plate. […] Scintillation cocktail (Ultima-Flo-M) was added into each well and plates counted on a Trilux Microbeta Counter. The IC50 values were calculated with GraphPad software (Prism). […]

[2] = tested on: rat hepatocytes; test: Sterol biosynthesis in rat hepatocytes (14C acetic acid labeling); format: cell-based; details: Hepatocyte, 14C cholesterol from 14C acetic acid, 4 hrs pre-incubation + 4 hrs labeling
Protocol: Protocol for Sterol Biosynthesis in Rat Hepatocytes:
(§1) Cell Culture, Compounds Treatment and Cell Labeling:
Frozen rat hepatocytes purchased from XenoTech(cat# N400572) were seeded on 6-well collagen I coated plates at a density of […]. The cells were grown in DMEM medium (Gibco, #11054-020) containing 10% FBS and 10 mM HEPES(Gibco # 15630-080) for 24 hrs. The cells were pre-incubated with compounds for 4 hrs and then labeled by incubating in medium containing 1 uCi/per ml of ^14C acetic acid for an additional 4 hrs. After labeling, the cells were washed twice with 5 mM MOPS solution containing 150 mM NaCl and 1 mM EDTA and collected in the lysis buffer containing 10% KOH and 80%(vol.) ethanol.
Cholesterol Extraction and Data Analysis:
In order to separate labeled cholesterol from labeled non-cholesterol lipids, the cells lysates were subject to saponification at 60° C. for 2 hrs. The lysates were then combined with 0.5 volume of H2O and 2 volumes of hexane, followed by 30 minutes of vigorous shaking. After the separation of two phases, the upper-phase solution was collected and combined with 5 volumes of scintillation cocktail. The amount of ^14C cholesterol was quantified by liquid scintillation counting. The IC50 values were calculated with GraphPad software (Prism 3.03).

[3] = tested on: L6 rat myoblast; test: Sterol biosynthesis in L6 rat myoblast (14C acetic acid labeling); format: cell-based; details: 14C cholesterol from 14C acetic acid, 3 hours pre-incubation + 3 hours labeling
Protocol: C.) Protocol for Sterol Biosynthesis in L6 Rat Myoblast:
as §1
L6 rat myoblast purchased from ATCC(CRL-1458) were grown in T-150 vented culture flasks and seeded on 12-well culture plates at a density of 60,000 cells per well. The cells were grown in DMEM, (Dulbecco's Modified Eagle Medium) (Gibco, #10567-014) containing 10% heat inactivated FBS (Fetal Bovine Serum) (Gibco # 10082-139) for 72 hours until reaching confluence. The cells were pre-incubated in media with compound and 0.2% DMSO (dimethyl sulfoxide) for 3 hours and then labeled by incubating in medium containing compound, 0.2% DMSO and 1 μCi/per mL of ^14C acetic acid for an additional 3 hours. […]
Lipid ester bonds were hydrolyzed by saponification of the lysates at 60° C. for 2 hours. […] The amount of ^14C cholesterol was quantified by scintillation counting in a Trilux 1450 plate reader (Wallac). The IC50 values were calculated from % inhibitions relative to negative controls vs. compound concentration on Microsoft excel 2000 data analysis wizard using a sigmoid inhibition curve model with formula: y=Bmax(1−(x^n/K^n+x^n))+y2 Where K is the IC50 for the inhibition curve, X is inhibitor concentration, Y is the response being inhibited and Bmax+Y2 is the limiting response as X approaches zero.

| SMILES | IC50 [1] | melting point | IC50 [2] | IC50 [3] |
| --- | --- | --- | --- | --- |
| CC(C)n1c(CC[C@@H](O)C[C@@H](O)CC(=O)[O-])c(-c2ccc(F)cc2)c(-c2ccccc2)c1C(=O)Nc1ccccc1.[Na+] [Example 1, (3R,5R)-7-[3-(4-fluoro-phenyl)-1-isopropyl-4-phenyl-5-phenylcarbamoyl-1H-pyrrol-2-yl]-3,5-dihydroxy-heptanoic Acid Sodium Salt] | 12 nM | 239 to 241 °C | 0.74 nM | 157 nM |
| CC(C)n1c(CC[C@@H](O)C[C@@H](O)CC(=O)O)c(-c2ccc(F)cc2)c(-c2ccccc2)c1C(=O)Nc1ccc(F)cc1 [Example 6, (3R,5R)-7-[3-(4-Fluoro-phenyl)-5-(4-fluoro-phenylcarbamoyl)-1-isopropyl-4-phenyl-1H-pyrrol-2-yl]-3,5-dihydroxy-heptanoic Acid Sodium Salt] | 4.1 nM |  | 0.23 nM |  |
| CC(C)n1c(CCC(O)CC(O)CC(=O)[O-])c(-c2ccc(F)cc2)c(-c2ccccc2)c1C(=O)Nc1ccc(C(=O)[O-])cn1.[Na+].[Na+] (stereo not drawn) [Example 25, 6-{[5-(6-Carboxy-3,5-dihydroxy-hexyl)-4-(4-fluoro-phenyl)-1-isopropyl-3-phenyl-1H-pyrrole-2-carbonyl]-amino}-nicotinic Acid di-sodium Salt] | 0.61 nM | > 250 °C | 0.19 nM | 2270 nM |

Now from value to molecule, other results behind:

| IC50 [1] | melting point | SMILES | IC50 [2] | IC50 [3] |
| --- | --- | --- | --- | --- |
|  | 255 to 260 °C | CC(C)n1c(CC[C@@H](O)C[C@@H](O)CC(=O)[O-])c(-c2ccc(F)cc2)c(-c2ccccc2)c1C(=O)NCc1ccc(C(=O)[O-])cc1.[Na+].[Na+] [Example 164, (3R,5R)-4-({[5-(6-Carboxy-3,5-dihydroxy-hexyl)-4-(4-fluoro-phenyl)-1-isopropyl-3-phenyl-1H-pyrrole-2-carbonyl]-amino}-methyl)-benzoic Acid Disodium Salt] |  |  |
|  | 173 to 175 °C | Cc1ccnc(NC(=O)c2c(-c3ccc(F)cc3)c(-c3ccc(F)cc3)c(C=O)n2C(C)C)n1 [Example 179, 3,4-bis-(4-fluoro-phenyl)-5-formyl-1-isopropyl-1H-pyrrole-2-carboxylic Acid (4-methyl-pyrimidin-2-yl)-amide] |  |  |
